Where two headings read alike, the source gives them in different places.
Key:
[1] = Resazurin cell viability assay, HeLa; assay type: cell-based; conditions: human, HeLa cells, three biological replicates, read-out: HeLa CC50 ± SD
Procedure: (§1) Cell Culture. QBI293 and HeLa cells were cultured in DMEM supplemented with 10% heat-
(§2) inactivated FBS and 1% penicillin-streptomycin. Cells were grown in T175 cell culture flasks maintained
(§3) at 37 ℃ in 5% CO2 and sub-c ultured when at 60-8 0% cell confluence.
(§4) Resazurin Cell Viability Assay. Cytotoxicity in QBI293 and HeLa cells was measured using the
(§5) resazurin cell viability assay.1 Test compounds were serially diluted in DMSO and added to 96-well
(§6) polystyrene assay plates to give final assay concentrations ranging from 100 nM to 4000 nM (1 µL; 1%
(§7) total DMSO). Fresh medium was added to the assay plate (49 µL/well). QBI293 or HeLa cells were
(§8) cells/well. Assay plates were incubated at 37 °C and 5% CO2 for 48 h, followed by addition of 20 µL 0.5
(§9) mM resazurin (Alfa Aesar, Cat. B21187) in PBS to each well. Assay plates were incubated in the dark for
(§10) (1 picture or pasted object on this page, not shown here)
(§11) 4 h at 37 °C. Fluorescence was measured at 531 nm and 595 nm excitation and emission wavelengths,
(§12) respectively, using a 2104 EnVision® multilabel plate reader. The viability of each well was normalized to
(§13) positive and negative controls in each assay plate. Dose-response curves were generated and CC50 values
(§14) calculated with GraphPad Prism, version 9.3 (San Diego, CA) using a sigmoidal four parameter logistic
(§15) curve. The means ± standard deviations from three biological replicates are shown.
(§16) (1) O'Brien, J.; Wilson, I.; Orton, T.; Pognan, F. Investigation of the Alamar Blue (resazurin) fluorescent
(§17) dye for the assessment of mammalian cell cytotoxicity. Eur. J. Biochem. 2000, 267 (17), 5421-5426.

[2] = tested on: de-tyrosinated α-tubulin (GluTub) in brain of WT mice; test: Brain PD: Glu-tubulin in brain tissue after compound treatment; assay type: in vivo, mouse; conditions: WT CD-1 mice, 1 mg/kg i.p. once daily for two consecutive days
Procedure: Finally, to evaluate target engagement in the CNS, PD studies were conducted to determine compound-dependent elevations in the stable MT marker, de-tyrosinated α-tubulin (GluTub), in brain homogenates from compound-treated WT mice.
All animal protocols were approved by the University of Pennsylvania Institutional Animal Care and Use Committee (IACUC). […] Compounds were diluted from 20 or 40 mM DMSO stock solutions into 30% Kolliphor EL (Sigma-Aldrich) phosphate-buffered saline, pH 7.4. After 4 h following the second injection, mice were euthanized and cortices and hippocampi were isolated from each brain and placed in 0.2 mL of ice-cold radioimmunoprecipitation assay (RIPA) buffer (50 mM Tris, 150 mM NaCl, 5 mM EDTA, 0.5% sodium deoxycholate, 1% NP-40, 0.1% sodium dodecyl sulfate (SDS), pH 8.0) containing protease inhibitor (PI) cocktail (Sigma-Aldrich), 1 mM phenylmethylsulfonyl fluoride (PMSF) (Sigma-Aldrich), and 3 μM trichostatin A (TSA) (Sigma-Aldrich). The brain samples were homogenized with a handheld battery-operated mixer and subsequently sonicated. After centrifugation at 100,000g for 30 min at 4 °C, supernatant samples were transferred to a new tube and the pellets were resuspended in 0.15 mL of RIPA buffer and again homogenized, sonicated, and centrifuged. The supernatant from the second centrifugation was pooled with that from the first. The combined supernatant samples were assessed for protein concentration using a BCA assay (Thermo Fisher Scientific), and equal protein amounts from each brain sample underwent separation by 10% sodium dodecyl sulfate polyacrylamide gel electrophoresis (SDS-PAGE) followed by transfer onto nitrocellulose membranes essentially as previously described.[11] […] Incubation with infrared dye-conjugated secondary antibodies and subsequent imaging and quantification of the blots on the Odyssey imaging system were as described.[11]

[3] = Brain-to-plasma ratio in mice; assay type: in vivo; conditions: mouse, ip, 1 h post-administration, i.p. 1.5 mg/kg, read-out: brain-to-plasma ratio (B/P)
[4] = Resazurin cell viability assay, QBI293; assay type: cell-based; conditions: human, QBI293 cells, three biological replicates, read-out: QBI293 CC50 ± SD
Procedure: as §1, §2, §3, §4, §5, §6, §7, §8, §9, §10, §11, §12, §13, §14, §15, §16, §17

[5] = tested on: acetylated α-tubulin (AcTub) levels in QBI293 cells; test: QBI293 cell assay of MT stabilization: acetylated α-tubulin ELISA; assay type: cell-based
Outline: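 AcTub and α-Tub were quantified by ELISA in whole-cell extracts normalized by BCA protein and expressed relative to vehicle. AcTub changes were also scaled to a 100 nM reference stabilizer control.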

In the case of `C[C@@H](Nc1c(-c2c(F)cc(C#CCCO)cc2F)c(Cl)nc2ncnn12)C(C)(C)C` [Compound 53, (R)-4-(4-(5-Chloro-7-((3,3-dimethylbutan-2-yl)amino)-[1,2,4]triazolo[1,5-a]pyrimidin-6-yl)-3,5-difluorophenyl)but-3-yn-1-ol], the CC50 at 48 h [1] is reported as 30.8 ± 4.7 nM, the “brain GluTub (GluTub-to-total α-Tub ratio) relative to vehicle-treated mice” value [2] is reported as “significant elevations in brain GluTub” and the Kp at 1 h [3] is reported as roughly 0.5. For the same compound, the CC50 at 48 h [4] was 30.1 ± 4.8 nM, the “AcTub (1 uM - normalized)” value ([5]; 1 uM compound, normalized) was 0.57 and the “AcTub (10 uM - normalized)” value ([5]; 10 uM compound, normalized) was 0.81. For the same compound, the fold induction at 1 µM ([5]; 4 h, 1 uM compound, read-out: AcTub (1uM)) was 3.67, the fold induction at 10 µM ([5]; 4 h, 10 uM compound, read-out: AcTub (10 uM)) was 5.25 and the “AcTub 1 μM, fold-change compared to positive control compound 5 (100 nM) (in parentheses)” value ([5]; 4 h incubation, 1 μM) was 0.57 fold-change. The fold induction at 1 µM ([5]; 4 h incubation, 1 μM, read-out: AcTub 1 μM, fold-change compared to vehicle (DMSO)-treated cells) was 3.67 ± 0.34, the “AcTub 10 μM, fold-change compared to positive control compound 5 (100 nM) (in parentheses)” value ([5]; 4 h incubation, 10 μM) was 0.81 fold-change and the fold induction at 10 µM ([5]; 4 h incubation, 10 μM, read-out: AcTub 10 μM, fold-change compared to vehicle (DMSO)-treated cells) was 5.25 ± 0.89.

Source: paper PMC9841533, “Microtubule-Stabilizing 1,2,4-Triazolo[1,5-a]pyrimidines as Candidate Therapeutics for Neurodegenerative Disease: Matched Molecular Pair Analyses and Computational Studies Reveal New Structure–Activity Insights” (Journal of Medicinal Chemistry, 2022)
